# According to patent US9000028B2, “Indole and indazole compounds as an inhibitor of cellular necrosis” (LG Life Sciences Ltd., priority 2007, dated 2015):
# Tested on: primary hepatocytes isolated from rats
# Test: Hepatocyte protective effect against substances deriving hepatocyte toxicity (WST-1 viability)
# Type: cell-based
# Conditions: Rattus norvegicus, Hepatocyte, doxorubicin, 24-48 h, read-out: EC50, cell protective effects against doxorubicin in hepatocytes
# Summary of the method: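 Hepatocytes from two-step collagenase perfusion (≥90% viable) seeded on collagen, pretreated 30 min with compound (5-step 2- or 3-fold dilutions from 30, 10 or 1 uM; 0.2% DMSO), then exposed to hepatotoxic agents. WST-1 absorbance at 440 nm after 24-48 h; EC50 = concentration giving 50% of maximal protection.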
row,SMILES,EC50 [nM]
1,"O=C(O)Cc1cccc(-c2cc3cc(Cl)cc(NCC4CCOCC4)c3[nH]2)c1 [Example 127, 2-{3-[5-Chloro-7-(tetrahydropyran-4-ylmethyl)amino-1H-indol-2-yl]-phenyl}-acetic acid]",590
2,"O=C(O)Cc1cccc(-c2cc3cc(Cl)cc(NC4CCOCC4)c3[nH]2)c1 [Example 129, 2-{3-[5-Chloro-7-(tetrahydropyran-4-yl)amino-1H-indol-2-yl]-phenyl}-acetic acid]",1160
3,"COC(=O)Cc1cccc(-c2cc3cc(Cl)cc(NCC4CCOCC4)c3[nH]2)c1 [Example 130, 2-{3-[5-Chloro-7-(tetrahydropyran-4-ylmethyl)amino-1H-indol-2-yl]-phenyl}-acetic acid methyl ester]",380
4,"COC(=O)Cc1cccc(-c2cc3cc(Cl)cc(NC4CCCC4)c3[nH]2)c1 [Example 131, 2-[3-(5-Chloro-7-cyclopentylamino-1H-indol-2-yl)-phenyl]-acetic acid methyl ester]",360
5,"OCc1ccccc1-c1cc2cc(Cl)cc(NC3CCCC3)c2[nH]1 [Example 133, [2-(5-Chloro-7-cyclopentylamino-1H-indol-2-yl)-phenyl]-methanol]",150
6,"O=C(O)c1ccccc1-c1cc2cc(Cl)cc(NC3CCCC3)c2[nH]1 [Example 134, 2-(5-Chloro-7-cyclopentylamino-1H-indol-2-yl)-benzoic acid]",> 1000
7,"COC(=O)c1ccccc1-c1cc2cc(Cl)cc(NC3CCCC3)c2[nH]1 [Example 135, 2-(5-Chloro-7-cyclopentylamino-1H-indol-2-yl)-benzoic acid methyl ester]",150
8,"OCc1ccc(-c2cc3cc(Cl)cc(NC4CCCC4)c3[nH]2)cc1 [Example 136, [4-(5-Chloro-7-cyclopentylamino-1H-indol-2-yl)-phenyl]-methanol]",50
9,"OCCc1ccc(-c2cc3cc(Cl)cc(NC4CCOCC4)c3[nH]2)cc1 [Example 137, 2-{4-[5-Chloro-7-(tetrahydropyran-4-yl)amino-1H-indol-2-yl]phenyl}-ethanol]",160
10,"O=C(O)c1ccc(-c2cc3cc(Cl)cc(NC4CCCC4)c3[nH]2)cc1 [Example 138, 4-(5-Chloro-7-cyclopentylamino-1H-indol-2-yl)-benzoic acid]",100
11,"O=C(O)Cc1ccc(-c2cc3cc(Cl)cc(NCC4CCOCC4)c3[nH]2)cc1 [Example 139, 2-{4-[5-Chloro-7-(tetrahydropyran-4-ylmethyl)amino-1H-indol-2-yl]phenyl}-acetic acid]",330
12,"O=C(O)Cc1ccc(-c2cc3cc(Cl)cc(NC4CCCC4)c3[nH]2)cc1 [Example 140, 2-[4-(5-Chloro-7-cyclopentylamino-1H-indol-2-yl)phenyl]-acetic acid]",130
13,"O=C(O)Cc1ccc(-c2cc3cc(Cl)cc(NC4CCOCC4)c3[nH]2)cc1 [Example 141, 2-{4-[5-Chloro-7-(tetrahydropyran-4-yl)amino-1H-indol-2-yl]phenyl}-acetic acid]",460
14,"COC(=O)c1ccc(-c2cc3cc(Cl)cc(NC4CCCC4)c3[nH]2)cc1 [Example 142, 4-(5-Chloro-7-cyclopentylamino-1H-indol-2-yl)benzoic acid methyl ester]",50
15,"COC(=O)c1ccc(-c2cc3cc(C)cc(NC4CCCC4)c3[nH]2)cc1 [Example 143, 4-(7-Cyclopentylamino-5-methyl-1H-indol-2-yl)benzoic acid methyl ester]",66
16,"COC(=O)Cc1ccc(-c2cc3cc(Cl)cc(NCC4CCOCC4)c3[nH]2)cc1 [Example 144, 2-{4-[5-Chloro-7-(tetrahydropyran-4-ylmethyl)amino-1H-indol-2-yl]phenyl}-acetic acid methyl ester]",300
17,"COC(=O)Cc1ccc(-c2cc3cc(Cl)cc(NC4CCOCC4)c3[nH]2)cc1 [Example 146, 2-{4-[5-Chloro-7-(tetrahydropyran-4-yl)amino-1H-indol-2-yl]phenyl}-acetic acid methyl ester]",330
18,"CN(C)Cc1cccc(-c2cc3cc(Cl)cc(NC4CCOCC4)c3[nH]2)c1 [Example 147, [5-Chloro-2-(3-dimethylaminomethylphenyl)-1H-indol-7-yl]-(tetrahydropyran-4-yl)-amine]",460
19,"Clc1cc(NC2CCOCC2)c2[nH]c(-c3cccc(CN4CCOCC4)c3)cc2c1 [Example 148, [5-Chloro-2-(3-morpholin-4-ylmethylphenyl)-1H-indol-7-yl]-(tetrahydropyran-4-yl)-amine]",160
20,"Clc1cc(NC2CCOCC2)c2[nH]c(-c3cccc(CC4CCNC4)c3)cc2c1 (stereo not drawn) [Example 149, [5-Chloro-2-(3-pyrrolidin-4-ylmethylphenyl)-1H-indol-7-yl]-(tetrahydropyran-4-yl)-amine]",550
21,"CC(=O)N1CCN(Cc2cccc(-c3cc4cc(Cl)cc(NC5CCOCC5)c4[nH]3)c2)CC1 [Example 150, 1-{4-[3-(5-Chloro-7-tetrahydropyran-4-ylamino-1H-indol-2-yl)-benzyl]-piperazin-1-yl}-ethanone]",160
22,"O=C1CN(CCc2cccc(-c3cc4cc(Cl)cc(NC5CCOCC5)c4[nH]3)c2)CCN1 [Example 151, {5-Chloro-2-[3-(2-oxo-piperazin-4-yl)ethylphenyl]-1H-indol-7-yl}-(tetrahydropyran-4-yl)-amine]",> 2000
23,"O=S1(=O)CCN(CCc2cccc(-c3cc4cc(Cl)cc(NC5CCOCC5)c4[nH]3)c2)CC1 [Example 152, {5-Chloro-2-[3-(1,1-dioxo-thiomorpholin-4-yl)ethylphenyl]-1H-indol-7-yl}-(tetrahydropyran-4-yl)-amine]",240
24,"c1cc(NC2CCCC2)c2[nH]ncc2c1 [Example 153, Cyclopentyl-(1H-indazol-7-yl)-amine]",2100
25,"c1cc(NC2CCOCC2)c2[nH]ncc2c1 [Example 154, (Tetrahydropyran-4-yl)-(1H-indazol-7-yl)-amine]",4200
26,"Cc1cc(NC2CCCC2)c2[nH]ncc2c1 [Example 155, Cyclopentyl-(5-methyl-1H-indazol-7-yl)-amine]",1300
27,"Cc1cc(NC2CCOCC2)c2[nH]ncc2c1 [Example 156, (5-Methyl-1H-indazol-7-yl)-(tetrahydropyran-4-yl)-amine]",> 10000
28,"COc1ccc(-c2n[nH]c3c(NC4CCCC4)cccc23)cc1 [Example 157, Cyclopentyl-[3-(4-methoxyphenyl)-1H-indazol-7-yl)-amine]",900
29,"COc1ccc(-c2n[nH]c3c(NCC4CCOCC4)cccc23)cc1 [Example 159, [3-(4-Methoxyphenyl)-1H-indazol-7-yl)-(tetrahydropyran-4-ylmethyl)-amine]",110
30,"O=S1(=O)CCN(Cc2cc(NC3CCOCC3)c3[nH]cc(-c4ccccc4)c3c2)CC1 [Example 161, (Tetrahydropyran-4-yl)-[5-(1,1-dioxo-thiomorpholin-4-yl)methyl-3-phenyl-1H-indol-7-yl)-amine]",360

# Same assay, conditions: doxorubicin; rat primary hepatocytes; 24-48 h; read-out: EC50, cell protective effects against doxorubicin in hepatocytes
row,SMILES,EC50 [nM]
1,"O=C(O)Cc1cccc(-c2cc3cc(Cl)cc(NC4CCCC4)c3[nH]2)c1 [Example 128, 2-[3-(5-Chloro-7-cyclopentylamino-1-H-indol-2-yl)-phenyl]-acetic acid]",170
2,COC(=O)Cc1cccc(-c2cc3cc(Cl)cc(NC4CCOCC4)c3[nH]2)c1 [Example 132],430
3,COc1ccc(-c2n[nH]c3c(NC4CCOCC4)cccc23)cc1 [Example 158],2770
